Experimental findings from patent US10253039B2, “Inhibitors of bacterial DNA gyrase with efficacy against gram-negative bacteria” (priority 2014, dated 2019) are described below.

A word on the MIC: it is the smallest concentration in the dilution series that meets the test's criterion for growth inhibition.

Common to all, as to assay type: cell-based
For one assay, the system named is E. coli BW25113. Kind of assay: MIC, microdilution in 96-well plates. The following applies: Escherichia coli, BW25113, B: E. coli BW25113; read-out: MIC. The method, boiled down: (§1)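 Broth microdilution per CLSI, 2-fold serial dilutions in Luria-Bertani medium with a 1:10000 inoculum from a growing subculture. Plates shaken at 37 °C for 16-18 h; MIC taken as lowest concentration showing no visible turbidity.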

In a further assay the test system is Edwardsiella tarda. The experiment in a line: MIC, microdilution in 96-well plates. The following applies: D: Edwardsiella tarda. The method, boiled down: as §1
On the technique in general: Broth dilution looks for growth in wells or tubes with falling amounts of substance.

The subject of a further assay is E. coli JW5503 (deltolC). The experiment in a line: MIC, 20-strain panel. The following applies: Escherichia coli, C: E. coli JW5503 (deltolC). In short, it runs like this:
as §1

For the next assay, the system named is E. coli MG1655. Kind of assay: MIC, 20-strain panel. To be noted: Escherichia coli, MG1655, A: E. coli MG1655; read-out: MIC. In short, it runs like this: as §1
In assay [1] the test system is Klebsiella pneumoniae subsp. pneumoniae. Kind of assay: MIC, 20-strain panel. The following applies: E: Klebsiella pneumoniae subsp. pneumoniae. The method, boiled down: as §1
Assay [2] has as its system Salmonella enterica subsp. enterica typhimurium. Kind of assay: MIC, 20-strain panel. The following applies: F: Salmonella enterica subsp. enterica Typhimurium. In short, it runs like this:
as §1

In another assay the test system is Shigella flexneri. Kind of assay: MIC, 20-strain panel. To be noted: G: Shigella flexneri. In short, it runs like this:
as §1

For assay [3], the system named is Staphylococcus aureus subsp. aureus. Kind of assay: MIC, 20-strain panel. The following applies: H: Staphylococcus aureus subsp. aureus, read-out: MIC. The method, boiled down:
as §1

Assay [4] has as its system Staphylococcus epidermidis. The experiment in a line: MIC, 20-strain panel. The method, boiled down:
as §1

The test system of assay [5] is Staphylococcus saprophyticus subsp. saprophyticus. Kind of assay: MIC, 20-strain panel. In short, it runs like this: as §1
The test system of another assay is Streptococcus agalactiae. Kind of assay: MIC, 20-strain panel. In short, it runs like this: as §1
The subject of the next assay is Streptococcus pyogenes. Kind of assay: MIC, 20-strain panel. In short, it runs like this:
as §1

Molecules are shown by their SMILES. ≈ marks a conversion by molar mass, not a printed value. Bounds are passed on as bounds.

On to `N#Cc1cccc(S(=O)(=O)N[C@@H]2CCN(Cc3ccc(-c4ccncc4)cc3)C2)c1` [Compound 67], for which the MIC in the assay with E. coli BW25113 was over 8 µg/mL; against Edwardsiella tarda, over 8 µg/mL; against E. coli JW5503 (deltolC) it was 4 µg/mL (≈ 9.56 µM); in the assay with E. coli MG1655, over 8 µg/mL; in [1], over 8 µg/mL; in [2] it was over 8 µg/mL. For the same compound, the MIC (against Shigella flexneri; in assay [3]; in assay [4]; in [5]; with Streptococcus agalactiae; with Streptococcus pyogenes) was over 8 µg/mL each time.

On to `CC(=O)c1cc(S(=O)(=O)N[C@@H]2CCN(Cc3ccc(-c4ccccc4)cc3)C2)ccc1C` [Compound 68], for which the MIC with E. coli BW25113 is over 8 µg/mL; against Edwardsiella tarda, over 8 µg/mL; against E. coli JW5503 (deltolC) it was 8 µg/mL (≈ 17.8 µM); in the assay with E. coli MG1655, over 8 µg/mL; in assay [1], over 8 µg/mL; in assay [2], over 8 µg/mL. The MIC was over 8 µg/mL against Shigella flexneri; over 8 µg/mL in assay [3]; 8 µg/mL (≈ 17.8 µM) in assay [4]; over 8 µg/mL in assay [5]; over 8 µg/mL in the assay with Streptococcus agalactiae; over 8 µg/mL in the assay on Streptococcus pyogenes.

For `O=S(=O)(N[C@@H]1CCN(Cc2ccc(-c3ccccc3Cl)cc2)C1)c1cccc(C(F)(F)F)c1` [Compound 69], the minimal inhibitory concentration (MIC) in the assay on E. coli BW25113 is over 8 µg/mL; with Edwardsiella tarda, over 8 µg/mL; in the assay on E. coli JW5503 (deltolC), 8 µg/mL (≈ 16.2 µM); in the assay on E. coli MG1655, over 8 µg/mL; in assay [1] it was over 8 µg/mL; in [2], over 8 µg/mL. Also, the MIC in the assay with Shigella flexneri is over 8 µg/mL; in [3], over 8 µg/mL; in assay [4], 4 µg/mL (≈ 8.08 µM); in [5], over 8 µg/mL; against Streptococcus agalactiae, over 8 µg/mL; against Streptococcus pyogenes, about 8 µg/mL (≈ 16.2 µM).

As for `N#Cc1cccc(S(=O)(=O)N[C@@H]2CCN(Cc3ccc(-c4ccccc4Cl)cc3)C2)c1` [Compound 70], the MIC was over 8 µg/mL with E. coli BW25113; over 8 µg/mL with Edwardsiella tarda; 1 µg/mL (≈ 2.21 µM) against E. coli JW5503 (deltolC); over 8 µg/mL in the assay on E. coli MG1655; over 8 µg/mL in assay [1]; over 8 µg/mL in assay [2]. The MIC in the assay with Shigella flexneri is over 8 µg/mL; in assay [3], over 8 µg/mL; in assay [4], 8 µg/mL (≈ 17.7 µM); in [5], over 8 µg/mL; against Streptococcus agalactiae it was over 8 µg/mL; with Streptococcus pyogenes, over 8 µg/mL.

In the case of `O=S(=O)(N[C@@H]1CCN(Cc2ccc(-c3ccccc3)cc2)C1)c1cc(F)cc(C(F)(F)F)c1` [Compound 71], the MIC was over 8 µg/mL with E. coli BW25113; over 8 µg/mL against Edwardsiella tarda; 4 µg/mL (≈ 8.36 µM) against E. coli JW5503 (deltolC); over 8 µg/mL in the assay with E. coli MG1655; over 8 µg/mL in assay [1]; over 8 µg/mL in [2]. The MIC against Shigella flexneri is over 8 µg/mL; in assay [3], over 8 µg/mL; in assay [4], over 8 µg/mL; in [5], over 8 µg/mL; in the assay on Streptococcus agalactiae, over 8 µg/mL; in the assay on Streptococcus pyogenes, 8 µg/mL (≈ 16.7 µM).

For `Cc1ccc(S(C)(=O)=O)cc1S(=O)(=O)N[C@@H]1CCN(Cc2ccc(OC(C)C)cc2)C1` [Compound 72], the MIC (in the assay on E. coli BW25113; against Edwardsiella tarda; in the assay with E. coli JW5503 (deltolC); with E. coli MG1655; in [1]; in assay [2]) was over 8 µg/mL each time. Besides, the MIC (against Shigella flexneri; in assay [3]; in assay [4]; in assay [5]; in the assay on Streptococcus agalactiae; in the assay on Streptococcus pyogenes) was over 8 µg/mL in each case.

For `Cc1ccc(S(C)(=O)=O)cc1S(=O)(=O)N[C@@H]1CCN(Cc2ccc(-c3ccccc3)cc2)C1` [Compound 73], the MIC in the assay on E. coli BW25113 was over 8 µg/mL; against Edwardsiella tarda, over 8 µg/mL; against E. coli JW5503 (deltolC), 4 µg/mL (≈ 8.25 µM); in the assay with E. coli MG1655 it was over 8 µg/mL; in [1], over 8 µg/mL; in assay [2], over 8 µg/mL. In addition, the MIC (in the assay on Shigella flexneri; in assay [3]; in assay [4]; in [5]; against Streptococcus agalactiae; against Streptococcus pyogenes) was over 8 µg/mL in each case.

As for `COc1ccc(-c2ccc(CN3CC[C@@H](NS(=O)(=O)c4cccc(OC(F)(F)F)c4)C3)cc2)cc1` [Compound 74], the MIC in the assay on E. coli BW25113 is over 8 µg/mL; in the assay on Edwardsiella tarda it was over 8 µg/mL; against E. coli JW5503 (deltolC) it was 8 µg/mL (≈ 15.8 µM); with E. coli MG1655, over 8 µg/mL; in assay [1] it was over 8 µg/mL; in [2], over 8 µg/mL. The MIC (in the assay on Shigella flexneri; in assay [3]; in assay [4]; in assay [5]; in the assay on Streptococcus agalactiae; in the assay with Streptococcus pyogenes) was over 8 µg/mL each time.

In the case of `O=S(=O)(N[C@@H]1CCN(Cc2ccc(-c3ccccc3Cl)cc2)C1)c1cccc(OC(F)(F)F)c1` [Compound 75], the MIC in the assay on E. coli BW25113 was over 8 µg/mL; against Edwardsiella tarda, over 8 µg/mL; in the assay on E. coli JW5503 (deltolC) it was about 8 µg/mL (≈ 15.7 µM); with E. coli MG1655, over 8 µg/mL; in assay [1] it was over 8 µg/mL; in assay [2], over 8 µg/mL. Besides, the MIC was over 8 µg/mL with Shigella flexneri; over 8 µg/mL in assay [3]; over 8 µg/mL in assay [4]; over 8 µg/mL in assay [5]; over 8 µg/mL against Streptococcus agalactiae; about 8 µg/mL (≈ 15.7 µM) with Streptococcus pyogenes.

For `COc1ccccc1-c1ccc(CN2CC[C@@H](NS(=O)(=O)c3cccc(OC(F)(F)F)c3)C2)cc1` [Compound 76], the MIC is over 8 µg/mL in the assay on E. coli BW25113; over 8 µg/mL against Edwardsiella tarda; 8 µg/mL (≈ 15.8 µM) in the assay with E. coli JW5503 (deltolC); over 8 µg/mL in the assay on E. coli MG1655; over 8 µg/mL in assay [1]; over 8 µg/mL in assay [2]. The MIC (in the assay with Shigella flexneri; in assay [3]; in assay [4]; in assay [5]; with Streptococcus agalactiae; against Streptococcus pyogenes) was over 8 µg/mL each time.

Regarding `CC(C)Oc1ccc(CN2CC[C@@H](NS(=O)(=O)c3cc(F)cc(C(F)(F)F)c3)C2)cc1` [Compound 78], the MIC in the assay with E. coli BW25113 was over 8 µg/mL; against Edwardsiella tarda, over 8 µg/mL; with E. coli JW5503 (deltolC) it was about 8 µg/mL (≈ 17.4 µM); with E. coli MG1655, over 8 µg/mL; in assay [1], over 8 µg/mL; in assay [2], over 8 µg/mL. In addition, the MIC (in the assay with Shigella flexneri; in assay [3]; in [4]; in assay [5]; against Streptococcus agalactiae; against Streptococcus pyogenes) was over 8 µg/mL in each case.

As for `Cc1ccc(S(C)(=O)=O)cc1S(=O)(=O)N[C@@H]1CCN(Cc2ccc(OC3CC3)cc2)C1` [Compound 79], the MIC (in the assay on E. coli BW25113; against Edwardsiella tarda; in the assay with E. coli JW5503 (deltolC); with E. coli MG1655; in assay [1]; in [2]) was over 8 µg/mL throughout. Also, the MIC (in the assay on Shigella flexneri; in assay [3]; in assay [4]; in [5]; in the assay with Streptococcus agalactiae; in the assay with Streptococcus pyogenes) was over 8 µg/mL each time.

Consider `COc1ccc(-c2ccc(CN3CC[C@@H](NS(=O)(=O)c4cccc(C#N)c4)C3)cc2)cc1` [Compound 80], for which the MIC (with E. coli BW25113; against Edwardsiella tarda; in the assay on E. coli JW5503 (deltolC); in the assay with E. coli MG1655; in assay [1]; in assay [2]) was over 8 µg/mL each time. Further, the MIC (against Shigella flexneri; in assay [3]; in assay [4]; in [5]; with Streptococcus agalactiae; against Streptococcus pyogenes) was over 8 µg/mL throughout.

Take `O=S(=O)(N[C@@H]1CCN(Cc2ccc(-c3ccccc3)cc2)C1)c1cc(C(F)(F)F)cc(C(F)(F)F)c1` [Compound 81]: the MIC (with E. coli BW25113; in the assay on Edwardsiella tarda; against E. coli JW5503 (deltolC); in the assay on E. coli MG1655; in assay [1]; in [2]) was over 8 µg/mL in each case. For the same compound, the MIC with Shigella flexneri is over 8 µg/mL; in [3], over 8 µg/mL; in assay [4], 8 µg/mL (≈ 15.1 µM); in [5], over 8 µg/mL; in the assay on Streptococcus agalactiae, over 8 µg/mL; in the assay on Streptococcus pyogenes, about 8 µg/mL (≈ 15.1 µM).

Turning to `Cc1c(S(=O)(=O)N[C@@H]2CCN(Cc3ccc(-c4ccccc4)cc3)C2)sc2ccc(Cl)cc12` [Compound 82], the minimal inhibitory concentration (MIC) (in the assay with E. coli BW25113; in the assay with Edwardsiella tarda; in the assay with E. coli JW5503 (deltolC); in the assay with E. coli MG1655; in assay [1]; in [2]) was over 8 µg/mL in each case. The MIC (in the assay on Shigella flexneri; in assay [3]; in [4]; in assay [5]; in the assay with Streptococcus agalactiae; in the assay on Streptococcus pyogenes) was over 8 µg/mL in each case.

With `Cc1c(S(=O)(=O)N[C@@H]2CCN(Cc3ccc(OC(C)C)cc3)C2)sc2ccc(Cl)cc12` [Compound 83], the MIC with E. coli BW25113 was over 8 µg/mL; against Edwardsiella tarda, over 8 µg/mL; in the assay on E. coli JW5503 (deltolC) it was 8 µg/mL (≈ 16.7 µM); in the assay with E. coli MG1655, over 8 µg/mL; in assay [1] it was over 8 µg/mL; in [2], over 8 µg/mL. The MIC was over 8 µg/mL in the assay on Shigella flexneri; about 8 µg/mL (≈ 16.7 µM) in [3]; 8 µg/mL (≈ 16.7 µM) in assay [4]; over 8 µg/mL in [5]; over 8 µg/mL in the assay on Streptococcus agalactiae; 8 µg/mL (≈ 16.7 µM) against Streptococcus pyogenes.
